Measured values published in ChEMBL document CHEMBL4330066, “Carbohydrate-naphthalene diimide conjugates as potential antiparasitic drugs: Synthesis, evaluation and structure-activity studies” (Eur J Med Chem, 2019).

What was measured:
[1] = Selectivity index, ratio of IC50 for human MRC5 cells to IC50 for Trypanosoma brucei Lister 427, antigenic type MiTat 1.2, clone 221a; assay type: toxicity; details: MRC5 cells versus Trypanosoma brucei Lister 427, read-out: Ratio IC50
[2] = test system: Trypanosoma brucei; experiment: Trypanocidal activity against Trypanosoma brucei Lister 427, antigenic type MiTat 1.2, clone 221a after 72 hrs by alamarBlue assay; assay type: functional, organism-based; details: Lister 427, 72 h
[3] = test system: Leishmania major; experiment: Leishmaniacidal activity against Leishmania major MHOM/IL/80/Friedlin promastigotes after 72 hrs by MTT assay; assay type: functional, organism-based
[4] = test system: MRC5; experiment: Cytotoxicity against human MRC5 cells assessed as reduction in cell viability after 48 hrs by MTT assay; assay type: cell-based; details: MRC5, 48 h
[5] = Cytotoxicity against human THP1 cells; assay type: cell-based; details: THP-1 cells, read-out: TC50 (the source's name)
[6] = test system: Leishmania major; experiment: Leishmaniacidal activity against Leishmania major MHOM/IL/80/Friedlin amastigotes infected in human THP1 cells after 72 hrs by luciferase luminescence assay; assay type: functional, organism-based; details: THP-1, 72 h
[7] = Selectivity index, ratio of TC50 for human THP1 cells to IC50 for Leishmania major MHOM/IL/80/Friedlin amastigotes; assay type: toxicity; details: THP1 cells versus Leishmania major amastigotes, read-out: Selectivity Index

Compound	selectivity ratio [1]	IC50 [2]	IC50 [3]	IC50 [4]	CC50 [5]	IC50 [6]	selectivity ratio [7]
CN(C)CCCc1cc2c3c(c(NCCCn4cc(CO[C@H]5O[C@H](CO)[C@@H](O)[C@H](O)[C@@H]5O)nn4)cc4c3c1C(=O)N(CCCN(C)C)C4=O)C(=O)N(CCCN(C)C)C2=O	15	0.44 µM	0.18 µM	6.61 µM	> 10 µM	> 5 µM	
CN(C)CCCN1C(=O)c2ccc3c4c(c(NCCCn5cc(CO[C@H]6O[C@H](CO)[C@@H](O)[C@H](O)[C@@H]6O)nn5)cc(c24)C1=O)C(=O)N(CCCN(C)C)C3=O	1.1	0.21 µM	2.41 µM	0.23 µM	1.78 µM	0.47 µM	3.8
CN(C)CCCN1C(=O)c2ccc3c4c(c(NCCCn5cc(COCCOCCOCCO[C@H]6O[C@H](CO)[C@@H](O)[C@H](O)[C@@H]6O)nn5)cc(c24)C1=O)C(=O)N(CCCN(C)C)C3=O	10.5	0.13 µM	6.12 µM	1.36 µM			
CN(C)CCCN1C(=O)c2ccc3c4c(c(NCCCn5cc(CO[C@@H]6O[C@H](CO)[C@@H](O)[C@H](O)[C@H]6O)nn5)cc(c24)C1=O)C(=O)N(CCCN(C)C)C3=O	1.2	0.22 µM	0.43 µM	0.26 µM	1.44 µM	0.66 µM	2.2
CN(C)CCCN1C(=O)c2ccc3c4c(c(NCc5cn([C@@H]6O[C@H](CO)[C@@H](O)[C@H](O)[C@H]6O)nn5)cc(c24)C1=O)C(=O)N(CCCN(C)C)C3=O		0.024 µM			8.1 µM	3.91 µM	2.1
CN(C)CCCc1cc2c3c(c(NCCCn4cc(CO[C@@H]5O[C@H](CO)[C@@H](O[C@H]6O[C@H](CO)[C@@H](O)[C@H](O)[C@H]6O)[C@H](O)[C@H]5O)nn4)cc4c3c1C(=O)N(CCCN(C)C)C4=O)C(=O)N(CCCN(C)C)C2=O	30.8	0.31 µM	11.4 µM	9.56 µM			
CCCNc1cc2c3c(ccc4c3c1C(=O)N(CCCN(C)C)C4=O)C(=O)N(CCCN(C)C)C2=O	40	0.009 µM			3.65 µM	0.61 µM	6
CN(C)CCCc1cc2c3c(c(NCCCn4cc(COCCOCCOCCO[C@H]5O[C@H](CO)[C@@H](O)[C@H](O)[C@@H]5O)nn4)cc4c3c1C(=O)N(CCCN(C)C)C4=O)C(=O)N(CCCN(C)C)C2=O	34	0.19 µM	4.75 µM	6.47 µM			
CN(C)CCCc1cc2c3c(c(NCCCn4cc(CCO[C@@H]5O[C@H](CO)[C@@H](O[C@H]6O[C@H](CO)[C@@H](O)[C@H](O)[C@H]6O)[C@H](O)[C@H]5O)nn4)cc4c3c1C(=O)N(CCCN(C)C)C4=O)C(=O)N(CCCN(C)C)C2=O	32.7	0.34 µM	2.89 µM	11.1 µM			
CN(C)CCCc1cc2c3c(c(NCCCn4cc(CO[C@@H]5O[C@H](CO)[C@@H](O)[C@H](O)[C@H]5O)nn4)cc4c3c1C(=O)N(CCCN(C)C)C4=O)C(=O)N(CCCN(C)C)C2=O	5.7	0.15 µM	0.49 µM	0.85 µM	> 10 µM	2.63 µM	> 3.8
CN(C)CCCN1C(=O)c2ccc3c4c(c(NCCCn5cc(CO[C@@H]6O[C@H](CO)[C@@H](O[C@@H]7O[C@H](CO)[C@H](O)[C@H](O)[C@H]7O)[C@H](O)[C@H]6O)nn5)cc(c24)C1=O)C(=O)N(CCCN(C)C)C3=O	3.4	0.37 µM	1.03 µM	1.24 µM	9.29 µM	4.72 µM	2
CN(C)CCCN1C(=O)c2ccc3c4c(c(NCCCn5cc(CO[C@@H]6O[C@H](CO)[C@@H](O[C@H]7O[C@H](CO)[C@@H](O)[C@H](O)[C@H]7O)[C@H](O)[C@H]6O)nn5)cc(c24)C1=O)C(=O)N(CCCN(C)C)C3=O	16.1	0.27 µM	6.79 µM	4.34 µM			
CN(C)CCCc1cc2c3c(c(NCCCn4cc(COCCOCCOCCO[C@@H]5O[C@H](CO)[C@@H](O)[C@H](O)[C@H]5O)nn4)cc4c3c1C(=O)N(CCCN(C)C)C4=O)C(=O)N(CCCN(C)C)C2=O	25.3	0.35 µM	0.27 µM	8.85 µM	> 10 µM	3.59 µM	> 2.8
CN(C)CCCc1cc2c3c(c(NCCCn4cc(CO[C@@H]5O[C@H](CO)[C@@H](O[C@@H]6O[C@H](CO)[C@H](O)[C@H](O)[C@H]6O)[C@H](O)[C@H]5O)nn4)cc4c3c1C(=O)N(CCCN(C)C)C4=O)C(=O)N(CCCN(C)C)C2=O	17.9	0.37 µM	20.1 µM	6.61 µM			
CCCNc1cc2c3c(c(CCCN(C)C)cc4c3c1C(=O)N(CCCN(C)C)C4=O)C(=O)N(CCCN(C)C)C2=O	26.7	0.003 µM	0.74 µM	0.08 µM		3.8 µM	
CN(C)CCCN1C(=O)c2ccc3c4c(c(NCCCn5cc(CCO[C@@H]6O[C@H](CO)[C@@H](O[C@@H]7O[C@H](CO)[C@H](O)[C@H](O)[C@H]7O)[C@H](O)[C@H]6O)nn5)cc(c24)C1=O)C(=O)N(CCCN(C)C)C3=O	3.5	0.33 µM	1.93 µM	1.17 µM	> 10 µM	4.71 µM	> 2.1
CN(C)CCCc1cc2c3c(c(NCCCn4cc(CCO[C@@H]5O[C@H](CO)[C@@H](O[C@@H]6O[C@H](CO)[C@H](O)[C@H](O)[C@H]6O)[C@H](O)[C@H]5O)nn4)cc4c3c1C(=O)N(CCCN(C)C)C4=O)C(=O)N(CCCN(C)C)C2=O	13.5	0.53 µM	0.28 µM	7.16 µM	> 10 µM	> 5 µM	
CN(C)CCCc1cc2c3c(c(NCCCn4cc(COCCOCCOCCO[C@@H]5O[C@H](CO)[C@@H](O[C@@H]6O[C@H](CO)[C@H](O)[C@H](O)[C@H]6O)[C@H](O)[C@H]5O)nn4)cc4c3c1C(=O)N(CCCN(C)C)C4=O)C(=O)N(CCCN(C)C)C2=O	8.5	0.83 µM	8.98 µM	7.04 µM			
CN(C)CCCc1cc2c3c(c(NCCCn4cc(COCCOCCOCCO[C@@H]5O[C@H](CO)[C@@H](O[C@H]6O[C@H](CO)[C@@H](O)[C@H](O)[C@H]6O)[C@H](O)[C@H]5O)nn4)cc4c3c1C(=O)N(CCCN(C)C)C4=O)C(=O)N(CCCN(C)C)C2=O	> 51	0.39 µM	10.7 µM	> 20 µM			
CN(C)CCCN1C(=O)c2ccc3c4c(c(NCCCn5cc(COCCOCCOCCO[C@@H]6O[C@H](CO)[C@@H](O[C@H]7O[C@H](CO)[C@@H](O)[C@H](O)[C@H]7O)[C@H](O)[C@H]6O)nn5)cc(c24)C1=O)C(=O)N(CCCN(C)C)C3=O	82.5	0.04 µM	0.16 µM	3.3 µM	> 10 µM	4.52 µM	> 2.2
CN(C)CCCN1C(=O)c2ccc3c4c(c(NCc5cn(CCO[C@@H]6O[C@H](CO)[C@@H](O)[C@H](O)[C@H]6O)nn5)cc(c24)C1=O)C(=O)N(CCCN(C)C)C3=O		0.017 µM			8.65 µM	4.42 µM	2
CN(C)CCCc1cc2c3c(c(NCCCn4cc(CCO[C@H]5O[C@H](CO)[C@@H](O)[C@H](O)[C@@H]5O)nn4)cc4c3c1C(=O)N(CCCN(C)C)C4=O)C(=O)N(CCCN(C)C)C2=O	16.6	0.31 µM	1.97 µM	5.15 µM	> 10 µM	> 5 µM	
CN(C)CCCN1C(=O)c2ccc3c4c(c(NCCCn5cc(CCO[C@@H]6O[C@H](CO)[C@@H](O[C@H]7O[C@H](CO)[C@@H](O)[C@H](O)[C@H]7O)[C@H](O)[C@H]6O)nn5)cc(c24)C1=O)C(=O)N(CCCN(C)C)C3=O	1.7	0.13 µM	4.68 µM	0.22 µM	1.52 µM	0.43 µM	3.5
CN(C)CCCN1C(=O)c2ccc3c4c(c(NCCCn5cc(CCO[C@H]6O[C@H](CO)[C@@H](O)[C@H](O)[C@@H]6O)nn5)cc(c24)C1=O)C(=O)N(CCCN(C)C)C3=O	0.9	0.18 µM	2.79 µM	0.17 µM			
